Assay results from patent publication US11753397B2, “Cereblon binders for the degradation of ikaros” (C4 Therapeutics, Inc., priority 2018, dated 2023).

Test system: NCIH929.1 cells
Test: Cell viability assay (CellTiter-Glo 2.0, ATP quantification)
Type: cell-based
Details: NCIH929.1 cell viability, CellTiter-Glo 2.0, 96 hr incubation, top concentration 1 μM
Procedure: Example 59. Cell Viability Assay
RPMI 1640 medium, fetal bovine serum (FBS) and 2-mercaptoethanol were purchased from Gibco (Grand Island, N.Y., USA). CellTiter-Glo® 2.0 Assay was purchased from Promega (Madison, Wis., USA). NCIH929.1 cell line was purchased from ATCC (Manassas, Va., USA). Cell culture flasks and 384-well microplates were acquired from VWR (Radnor, Pa., USA).
NCIH929.1 cell viability was determined based on quantification of ATP using CellTiter-Glo® 2.0 luminescent Assay kit, which signals the presence of metabolically-active cells. Briefly, the test compound was added to 384-well plates at a top concentration of 1 μM with 10 points, half log titration in duplicates. NCIH929.1 cells were seeded into the 384-well plates in RPMI medium containing 10% FBS and 0.05 mM 2-mercaptoethanol at a cell density of 750 cells per well. Cells treated in the absence of the test compound were the negative control and cells treated in the absence of CellTiter-Glo® 2.0 were the positive control. At the same day of compound treatment, CellTiter-Glo® 2.0 was added to a plate with cells treated in the absence of the test compound to establish Cytostatic control value (CT0). Cells treated with the test compound were incubated at 37° C. with 5% CO2 for 96 hr. CellTiter-Glo reagent was then added to the cells and luminescence was acquired on EnVision™ Multilabel Reader (PerkinElmer, Santa Clara, Calif., USA).

SMILES | GI50 [µM]
CC(C(=O)N1CCC(n2cc(CNc3cccc4c3C(=O)N(C3CCC(=O)NC3=O)C4=O)cn2)CC1)(C(F)(F)F)C(F)(F)F (stereo not drawn) [Compound 56, 2-(2,6-dioxopiperidin-3-yl)-4-(((1-(1-(3,3,3-trifluoro-2-methyl-2-(trifluoromethyl)propanoyl)piperidin-4-yl)-1H-pyrazol-4-yl)methyl)amino)isoindoline-1,3-dione] | < 0.1
O=C1CCC(N2C(=O)c3cccc(NCc4cnn(C5CCN(C(=O)[C@@H]6CCCO6)CC5)c4)c3C2=O)C(=O)N1 (stereo partly drawn) [Compound 59, 2-(2,6-dioxopiperidin-3-yl)-4-(((1-(1-((S)-tetrahydrofuran-2-carbonyl)piperidin-4-yl)-1H-pyrazol-4-yl)methyl)amino)isoindoline-1,3-dione] | < 0.1
O=C1CCC(N2C(=O)c3cccc(NCc4cnn(C5CCN(C(=O)C6(C(F)(F)F)CC6)CC5)c4)c3C2=O)C(=O)N1 (stereo not drawn) [Compound 60, 2-(2,6-dioxopiperidin-3-yl)-4-(((1-(1-(1-(trifluoromethyl)cyclopropane-1-carbonyl)piperidin-4-yl)-1H-pyrazol-4-yl)methyl)amino)isoindoline-1,3-dione] | < 0.1
CC1(C(=O)N2CCC(n3cc(CNc4cccc5c4C(=O)N(C4CCC(=O)NC4=O)C5=O)cn3)CC2)COC1 (stereo not drawn) [Compound 61, 2-(2,6-dioxopiperidin-3-yl)-4-(((1-(1-(3-methyloxetane-3-carbonyl)piperidin-4-yl)-1H-pyrazol-4-yl)methyl)amino)isoindoline-1,3-dione] | < 0.1
CC1(C(=O)N2CCC(n3cc(CNc4cccc5c4C(=O)N(C4CCC(=O)NC4=O)C5=O)cn3)CC2)CCCC1 (stereo not drawn) [Compound 62, 2-(2,6-dioxopiperidin-3-yl)-4-(((1-(1-(1-methylcyclopentane-1-carbonyl)piperidin-4-yl)-1H-pyrazol-4-yl)methyl)amino)isoindoline-1,3-dione] | < 0.001
CC1(C(=O)N2CCC(n3cc(CNc4cccc5c4C(=O)N(C4CCC(=O)NC4=O)C5=O)cn3)CC2)CCCCC1 (stereo not drawn) [Compound 63, 2-(2,6-dioxopiperidin-3-yl)-4-(((1-(1-(1-methylcyclohexane-1-carbonyl)piperidin-4-yl)-1H-pyrazol-4-yl)methyl)amino)isoindoline-1,3-dione] | < 0.001
CC1(C(=O)N2CCC(n3cc(CNc4cccc5c4C(=O)N(C4CCC(=O)NC4=O)C5=O)cn3)CC2)CCOCC1 (stereo not drawn) [Compound 64, 2-(2,6-dioxopiperidin-3-yl)-4-(((1-(1-(4-methyltetrahydro-2H-pyran-4-carbonyl)piperidin-4-yl)-1H-pyrazol-4-yl)methyl)amino)isoindoline-1,3-dione] | < 0.1
CC(C)(C)OC(=O)N1CCC(n2cc(CNc3cccc4c3C(=O)N(C3CCC(=O)NC3=O)C4=O)cn2)CC1 (stereo not drawn) [Compound 66, tert-butyl 4-(4-(((2-(2,6-dioxopiperidin-3-yl)-1,3-dioxoisoindolin-4-yl)amino)methyl)-1H-pyrazol-1-yl)piperidine-1-carboxylate] | < 0.1
O=C1CCC(N2C(=O)c3cccc(NCc4cnn(C5CCN(C(=O)C6(c7ccc(F)cc7)CCCCC6)CC5)c4)c3C2=O)C(=O)N1 (stereo not drawn) [Compound 68, 2-(2,6-dioxopiperidin-3-yl)-4-(((1-(1-(1-(4-fluorophenyl)cyclohexane-1-carbonyl)piperidin-4-yl)-1H-pyrazol-4-yl)methyl)amino)isoindoline-1,3-dione] | < 0.1
O=C1CCC(N2C(=O)c3cccc(NCc4cnn(C5CCN(C(=O)C6(c7ccccc7)COC6)CC5)c4)c3C2=O)C(=O)N1 (stereo not drawn) [Compound 69, 2-(2,6-dioxopiperidin-3-yl)-4-(((1-(1-(3-phenyloxetane-3-carbonyl)piperidin-4-yl)-1H-pyrazol-4-yl)methyl)amino)isoindoline-1,3-dione] | < 0.1
O=C1CCC(N2C(=O)c3cccc(NCc4cnn(C5CCN(C(=O)C6(c7ccc(F)cc7)CCC6)CC5)c4)c3C2=O)C(=O)N1 (stereo not drawn) [Compound 70, 2-(2,6-dioxopiperiidn-3-yl)-4-(((1-(1-(1-(4-fluorophenyl)cyclobutane-1-carbonyl)piperidin-4-yl)-1H-pyrazol-4-yl)methyl)amino)isoindoline-1,3-dione] | < 0.001
O=C1CCC(N2C(=O)c3cccc(NCc4cnn(C5CCN(C(=O)C6(Cc7ccccc7)CC6)CC5)c4)c3C2=O)C(=O)N1 (stereo not drawn) [Compound 71, 4-(((1-(1-(1-benzylcyclopropane-1-carbonyl)piperidin-4-yl)-1H-pyrazol-4-yl)methyl)amino)-2-(2,6-dioxopiperidin-3-yl)isoindoline-1,3-dione] | < 0.1
O=C1CCC(N2C(=O)c3cccc(NCc4cnn(C5CCN(C(=O)C6(c7ccccc7)CC6)CC5)c4)c3C2=O)C(=O)N1 (stereo not drawn) [Compound 72, 2-(2,6-dioxopiperidin-3-yl)-4-(((1-(1-(1-phenylcyclopropane-1-carbonyl)piperidin-4-yl)-1H-pyrazol-4-yl)methyl)amino)isoindoline-1,3-dione] | < 0.1
CC(C)(C(=O)N1CCC(n2cc(CNc3cccc4c3C(=O)N(C3CCC(=O)NC3=O)C4=O)cn2)CC1)C(F)(F)F (stereo not drawn) [Compound 73, 2-(2,6-dioxopiperidin-3-yl)-4-(((1-(1-(3,3,3-trifluoro-2,2-dimethylpropanoyl)piperidin-4-yl)-1H-pyrazol-4-yl)methyl)amino)isoindoline-1,3-dione] | < 0.1
CC1(C(=O)N2CCC(n3cc(CNc4cccc5c4C(=O)N(C4CCC(=O)NC4=O)C5=O)cn3)CC2)CC(F)(F)C1 (stereo not drawn) [Compound 74, 4-(((1-(1-(3,3-difluoro-1-methylcyclobutane-1-carbonyl)piperidin-4-yl)-1H-pyrazol-4-yl)methyl)amino)-2-(2,6-dioxopiperidin-3-yl)isoindoline-1,3-dione] | < 0.1
O=C1CCC(N2C(=O)c3cccc(NCc4cnn(C5CCN(C(=O)C6(C(F)(F)F)CCC6)CC5)c4)c3C2=O)C(=O)N1 (stereo not drawn) [Compound 75, 2-(2,6-dioxopiperidin-3-yl)-4-(((1-(1-(1-(trifluoromethyl)cyclobutane-1-carbonyl)piperidin-4-yl)-1H-pyrazol-4-yl)methyl)amino)isoindoline-1,3-dione] | < 0.001
O=C1CCC(N2C(=O)c3cccc(NCc4cnn(C5CCN(C(=O)C6(c7ccc(F)cc7)CCCC6)CC5)c4)c3C2=O)C(=O)N1 (stereo not drawn) [Compound 77, 2-(2,6-dioxopiperidin-3-yl)-4-(((1-(1-(1-(4-fluorophenyl)cyclopentane-1-carbonyl)piperidin-4-yl)-1H-pyrazol-4-yl)methyl)amino)isoindoline-1,3-dione] | < 0.001
O=C1CCC(N2C(=O)c3cccc(NCc4cnn(C5CCN(C(=O)C67CC(F)(C6)C7)CC5)c4)c3C2=O)C(=O)N1 (stereo not drawn) [Compound 78, 2-(2,6-dioxopiperidin-3-yl)-4-(((1-(1-(3-fluorobicyclo[1.1.1]pentane-1-carbonyl)piperidin-4-yl)-1H-pyrazol-4-yl)methyl)amino)isoindoline-1,3-dione] | < 0.1
O=C1CCC(N2C(=O)c3cccc(NCc4cnn(C5CCN(C(=O)C6(F)CCC6)CC5)c4)c3C2=O)C(=O)N1 (stereo not drawn) [Compound 79, 2-(2,6-dioxopiperidin-3-yl)-4-(((1-(1-(1-fluorocyclobutane-1-carbonyl)piperidin-4-yl)-1H-pyrazol-4-yl)methyl)amino)isoindoline-1,3-dione] | < 0.1
N#CC1(C(=O)N2CCC(n3cc(CNc4cccc5c4C(=O)N(C4CCC(=O)NC4=O)C5=O)cn3)CC2)CCC1 (stereo not drawn) [Compound 81, 1-(4-(4-(((2-(2,6-dioxopiperidin-3-yl)-1,3-dioxoisoindolin-4-yl)amino)methyl)-1H-pyrazol-1-yl)piperidine-1-carbonyl)cyclobutane-1-carbonitrile] | < 0.1
COC1(C(=O)N2CCC(n3cc(CNc4cccc5c4C(=O)N(C4CCC(=O)NC4=O)C5=O)cn3)CC2)CCC1 (stereo not drawn) [Compound 82, 2-(2,6-dioxopiperidin-3-yl)-4-(((1-(1-(1-methoxycyclobutane-1-carbonyl)piperidin-4-yl)-1H-pyrazol-4-yl)methyl)amino)isoindoline-1,3-dione] | < 0.1
O=C1CCC(N2C(=O)c3cccc(NCc4cnn(C5CCN(C(=O)C(F)(F)C(F)(F)F)CC5)c4)c3C2=O)C(=O)N1 (stereo not drawn) [Compound 83, 2-(2,6-dioxopiperidin-3-yl)-4-(((1-(1-(2,2,3,3,3-pentafluoropropanoyl)piperidin-4-yl)-1H-pyrazol-4-yl)methyl)amino)isoindoline-1,3-dione] | < 0.1
O=C1CCC(N2C(=O)c3cccc(NCc4cnn(C5CCN(C(=O)C6(O)CCC6)CC5)c4)c3C2=O)C(=O)N1 (stereo not drawn) [Compound 84, 2-(2,6-dioxopiperidin-3-yl)-4-(((1-(1-(1-hydroxycyclobutane-1-carbonyl)piperidin-4-yl)-1H-pyrazol-4-yl)methyl)amino)isoindoline-1,3-dione] | < 0.1
CC12CC(C(=O)N3CCC(n4cc(CNc5cccc6c5C(=O)N(C5CCC(=O)NC5=O)C6=O)cn4)CC3)(C1)C2 (stereo not drawn) [Compound 85, 2-(2,6-dioxopiperidin-3-yl)-4-(((1-(1-(3-methylbicyclo[1.1.1]pentane-1-carbonyl)piperidin-4-yl)-1H-pyrazol-4-yl)methyl)amino)isoindoline-1,3-dione] | < 0.1
